Data on 5 compounds can be found in publication PMC6141879, “How Does the Sweet Violet (Viola odorata L.) Fight Pathogens and Pests – Cyclotides as a Comprehensive Plant Host Defense System” (Frontiers in Plant Science, 2018).

Values after ≈ are worked out from the molar mass of the structure shown. Where a SMILES comes first, the peptide text is derived from it. Bridges are numbered along the chain shown (N, C = ends).

Assay [1] deals with Botrytis cinerea. The settings on record: 48 h.
In assay [2] the test system is Colletotrichum utrechtense. The settings on record: 72 h.
Assay [3] deals with Alternaria alternata. The settings on record: 72 h.
Assay [4] is described as follows: Liposome leakage assay, fungal membrane model. Conditions: read-out: EC50 of liposome permeabilization (carboxyfluorescein leakage); S. cerevisiae polar lipid extract:ergosterol 7:3 liposomes, Tris buffer, 45 min, % of Triton X-100 leakage, triplicate.
In assay [5] the test system is Pseudomonas syringae pv. syringae strain Pss-762. Description: Antibacterial MIC assay (CLSI), P. syringae pv. syringae. The assay is classed as cell-based. The settings on record: M9 minimal medium with 0.4% glucose, 24 h, 28°C, 1.5 × 10^6 CFU ml^-1, OD600 < 0.1, triplicate, repeated three times. The protocol:
Cyclotides (cycloviolacin O2, O3, and O19) at concentrations of 0.78–100 μM were tested for activity against three bacterial plant pathogens: Pseudomonas syringae pv. syringae strain Pss-762 ([Taraszkiewicz et al., 2012]), Dickeya dadantii strain 3937 ([Glasner et al., 2011]) and Pectobacterium atrosepticum SCRI 1043 ([Bell et al., 2004]). Experiments were conducted according to the CLSI guidelines ([Clinical and Laboratory Standards Institute [CLSI], 2012]) using standard CA-MHB medium (BBL^TM Mueller-Hinton II Broth cation-adjusted, Becton Dickinson) or M9 minimal medium (per L: 6 g Na2HPO4, 3g KH2PO4, 0.5 g NaCl, 1 g NH4Cl) supplemented with glucose to a final concentration of 0.4%. Bacterial colonies from 24 h old cultures on TSA (trypticase soy agar, BioMerieux) plates were used to inoculate CA-MHB or M9 minimal medium and set up liquid cultures. Next, late log phase bacterial cultures were diluted to 0.5 McFarland standard, as determined by densimetry in the relevant medium (DensiMeter II, EMO, Brno). […] The minimal inhibitory concentration (MIC) of each cyclotide was determined as the lowest concentration required to inhibit bacterial growth, i.e., to reduce the culture’s OD600 to less than 0.1. OD600 values were measured with a microplate reader (EnVision^TM Multilabel Plate Reader, Perkin Elmer). […]

The subject of assay [6] is seven fungal plant pathogens. Conditions: 0 h.
Assay [7] has as its system Dickeya dadantii strain 3937. Conditions: 24 h.
In assay [8] the test system is Pectobacterium atrosepticum SCRI 1043. The settings on record: 24 h.
In assay [9] the test system is Fusarium graminearum. Conditions: 48 h.
The subject of assay [10] is Fusarium culmorum. Conditions: 48 h.
Assay [11] has as its system Mycosphaerella fragariae. Conditions: 48 h.

With `CC[C@H](C)[C@@H]1NC(=O)[C@H](C)NC(=O)[C@H](C)NC(=O)[C@H](CO)NC(=O)[C@H]([C@@H](C)CC)NC(=O)[C@@H]2CSSC[C@@H]3NC(=O)[C@H](C(C)C)NC(=O)[C@H](CCCCN)NC(=O)[C@H](CO)NC(=O)[C@H](CCCCN)NC(=O)[C@@H]4CSSC[C@H](NC(=O)[C@H](CO)NC(=O)[C@H](CCC(=O)O)NC(=O)CNC(=O)[C@H](CSSC[C@H](NC(=O)CNC1=O)C(=O)N[C@@H](CO)C(=O)N4)NC(=O)[C@@H]1CCCN1C(=O)[C@H]([C@@H](C)CC)NC(=O)CNC(=O)[C@H](CC(N)=O)NC(=O)[C@H](CCCNC(=N)N)NC(=O)[C@H](Cc1ccc(O)cc1)NC3=O)C(=O)N[C@@H](C(C)C)C(=O)N[C@@H](Cc1c[nH]c3ccccc13)C(=O)N[C@@H]([C@@H](C)CC)C(=O)N1CCC[C@H]1C(=O)N2` [cyO13] (cyclo(AAIGCSCKSKVCYRNGIPCGESCVWIPCIS); disulfide 5-19, 7-23, 12-28), the minimal inhibitory concentration (MIC) in assay [1] was found to be 3 µM (≈ 9.37 µg/mL); in [2], 6.25 µM (≈ 19.5 µg/mL); in assay [3], 3 µM (≈ 9.37 µg/mL). The 50% effective concentration (EC50) in [4] was 130 nM.

For `CC[C@H](C)[C@@H]1NC(=O)[C@H](C)NC(=O)[C@H](CO)NC(=O)[C@H]([C@@H](C)O)NC(=O)[C@H](CC(C)C)NC(=O)[C@@H]2CSSC[C@@H]3NC(=O)[C@H](C(C)C)NC(=O)[C@H](CCCCN)NC(=O)[C@H](CO)NC(=O)[C@H](CCCCN)NC(=O)[C@@H]4CSSC[C@H](NC(=O)[C@H](CO)NC(=O)[C@H](CCC(=O)O)NC(=O)CNC(=O)[C@H](CSSC[C@H](NC(=O)CNC1=O)C(=O)N[C@@H](CO)C(=O)N4)NC(=O)[C@@H]1CCCN1C(=O)[C@H]([C@@H](C)CC)NC(=O)CNC(=O)[C@H](CC(N)=O)NC(=O)[C@H](CCCNC(=N)N)NC(=O)[C@H](Cc1ccc(O)cc1)NC3=O)C(=O)N[C@@H](C(C)C)C(=O)N[C@@H](Cc1c[nH]c3ccccc13)C(=O)N[C@@H]([C@@H](C)CC)C(=O)N1CCC[C@H]1C(=O)N2` [cyO3] (cyclo(AIGCSCKSKVCYRNGIPCGESCVWIPCLTS); disulfide 4-18, 6-22, 11-27), the MIC in assay [5] was determined as 25 µM (≈ 78.9 µg/mL); in [1], 1.5 µM (≈ 4.73 µg/mL); in assay [2] it was 6.25 µM (≈ 19.7 µg/mL); in [3] it was 0.8 µM (≈ 2.52 µg/mL); in [7], 75 µM (≈ 237 µg/mL); in assay [8], 100 µM (≈ 315 µg/mL). Further, in [6], the “MICs, range or bound over the tested fungi” value was 0.8 to 12.5 µM. For the same compound, in [4], the EC50 came out at 67 nM.

On to `CC(C)C[C@@H]1NC(=O)CNC(=O)[C@H](CC(N)=O)NC(=O)[C@H](CCCNC(=N)N)NC(=O)[C@H]([C@@H](C)O)NC(=O)[C@@H]2CSSC[C@@H]3NC(=O)[C@H]([C@@H](C)O)NC(=O)CNC(=O)CNC(=O)[C@H](C(C)C)NC(=O)[C@@H]4CSSC[C@H](NC(=O)[C@H](CO)NC(=O)[C@H](CSSC[C@H](NC(=O)[C@H](C(C)C)NC(=O)[C@@H]5CCCN5C1=O)C(=O)NCC(=O)N[C@@H](CCC(=O)O)C(=O)N[C@@H]([C@@H](C)O)C(=O)N4)NC(=O)CNC(=O)[C@@H]1CCCN1C(=O)[C@H]([C@@H](C)O)NC(=O)[C@H](CC(N)=O)NC3=O)C(=O)N[C@@H](CO)C(=O)N[C@@H](Cc1c[nH]c3ccccc13)C(=O)N1CCC[C@H]1C(=O)N[C@@H](C(C)C)C(=O)N2` [varv A], for which the minimum inhibitory concentration (MIC) in assay [1] was 80 µM (≈ 230 µg/mL); in [9], 40 µM (≈ 115 µg/mL); in [10] it was 40 µM (≈ 115 µg/mL); in [11] it was greater than 80 µM.

Take `CC[C@H](C)[C@@H]1NC(=O)[C@@H]2CSSC[C@@H]3NC(=O)[C@H](C(C)C)NC(=O)[C@H](CCCCN)NC(=O)[C@H](CO)NC(=O)[C@H](CCCCN)NC(=O)[C@@H]4CSSC[C@H](NC(=O)[C@H](CO)NC(=O)[C@H](CCC(=O)O)NC(=O)CNC(=O)[C@H](CSSC[C@H](NC(=O)CNC(=O)[C@H](C(C)C)NC(=O)[C@H](C(C)C)NC(=O)[C@H](CO)NC(=O)[C@H](CO)NC1=O)C(=O)N[C@@H](CO)C(=O)N4)NC(=O)[C@@H]1CCCN1C(=O)[C@H](CC(C)C)NC(=O)[C@H]([C@@H](C)O)NC(=O)CNC(=O)[C@H](CC(=O)O)NC(=O)[C@H](CCCCN)NC(=O)[C@H](Cc1ccc(O)cc1)NC3=O)C(=O)N[C@@H](C(C)C)C(=O)N[C@@H](Cc1c[nH]c3ccccc13)C(=O)N[C@@H]([C@@H](C)CC)C(=O)N1CCC[C@H]1C(=O)N2` [cyO19] (cyclo(CGESCVWIPCISSVVGCSCKSKVCYKDGTLP); disulfide 1-17, 5-19, 10-24): the MIC is 25 µM (≈ 80.7 µg/mL) in assay [5]; 1.5 µM (≈ 4.84 µg/mL) in assay [1]; 12.5 µM (≈ 40.4 µg/mL) in assay [9]; 1.5 µM (≈ 4.84 µg/mL) in assay [10]; greater than 25 µM in assay [11]; 6.25 µM (≈ 20.2 µg/mL) in assay [2]. The minimal inhibitory concentration (MIC) in assay [3] was 1.5 µM (≈ 4.84 µg/mL); in assay [7], 75 µM (≈ 242 µg/mL); in assay [8], 100 µM (≈ 323 µg/mL). In [4], the EC50 is 80 nM.

As to `CC(C)C[C@@H]1NC(=O)CNC(=O)[C@H](CC(N)=O)NC(=O)[C@H](CCCNC(=N)N)NC(=O)[C@H]([C@@H](C)O)NC(=O)[C@@H]2CSSC[C@@H]3NC(=O)[C@H]([C@@H](C)O)NC(=O)CNC(=O)CNC(=O)[C@H](C(C)C)NC(=O)[C@@H]4CSSC[C@H](NC(=O)[C@H]([C@@H](C)O)NC(=O)[C@H](CSSC[C@H](NC(=O)[C@H](C(C)C)NC(=O)[C@@H]5CCCN5C1=O)C(=O)NCC(=O)N[C@@H](CCC(=O)O)C(=O)N[C@@H]([C@@H](C)O)C(=O)N4)NC(=O)CNC(=O)[C@@H]1CCCN1C(=O)[C@H]([C@@H](C)O)NC(=O)[C@H](CC(N)=O)NC3=O)C(=O)N[C@@H](CO)C(=O)N[C@@H](Cc1c[nH]c3ccccc13)C(=O)N1CCC[C@H]1C(=O)N[C@@H](C(C)C)C(=O)N2` [kB1, kalata B1], the minimal inhibitory concentration (MIC) in [1] was 80 µM (≈ 231 µg/mL); in assay [9], greater than 80 µM; in assay [10] it was greater than 80 µM; in assay [11], greater than 80 µM.

A word on the MIC: it is the least concentration at which growth counts as inhibited. As usually defined, the EC50 is the concentration needed to bring the measured effect to its halfway point.
